Results on 6 compounds are retold here after US4822907A, “Method for recovering α-L-aspartyl-L-phenylalanine methyl ester” (Ajinomoto Co., Inc., priority 1986, dated 1989).

Data set [1] can be described thus: Desalting and concentration of neutralized mother liquor on flat reverse osmosis membrane; residual rate (Example 2, Table 2). It is filed as physicochemical. The following applies: pH 5.2, 25°, 40 kg/cm^2 G. Here is the method: Next, water was added until the volume became the original volume. Further by repeating similar operation, the system was desalted and concentrated until the volume became half of the original volume.

Data set [2] can be described thus: Desalting and concentration of raw solution on spiral polyamide reverse osmosis membranes; inhibition rate of each component (Example 1, Table 1). The conditions noted are these: for Inhibition Rate: 40 kg/cm^2. In kind it is physicochemical. Here is the method: Desalting and concentration were performed, while cyclizing and mixing a non-permeation solution to and with the raw solution.
From the composition of the permeation liquid exhausted in this case, the inhibition rate of each component was calculated according to the following equation. [formula]
Analysis method: liquid chromatography (α-A(M)PM, α-APM, α-AP), (Cl^-).

The nature of data set [3]: Permeability of valuable matters through reverse osmosis membranes (general findings). The following applies: in words; for permeability of valuable matters: reverse osmosis membrane having NaCl inhibition rate of approximately 30% or more.
The conditions of data set [4]: not told.
The conditions of data set [5]: cited from earlier work.
Setting [6] is: Polyamide Type (A), NaCl inhibition rate 50%.
The mark [7] stands for this setting: Polysulfone Type (B), NaCl inhibition rate 25%, comparison.
[8] abbreviates: membrane NaCl inhibition rate 15% (control), immediately after permeation started, pH 4.54, 20° C.
The mark [9] stands for this setting: membrane NaCl inhibition rate 15% (control), when concentrated to 2.5 times, 20° C.
Setting [10] is: membrane NaCl inhibition rate 30%, immediately after permeation started, pH 4.54, 20° C.
[11] abbreviates: membrane NaCl inhibition rate 30%, when concentrated to 2.5 times, 20° C.
Where [12] appears, read: membrane NaCl inhibition rate 60%, immediately after permeation started, pH 4.54, 20° C.
Setting [13] is: membrane NaCl inhibition rate 60%, when concentrated to 2.5 times, 20° C.
Where [14] appears, read: membrane NaCl inhibition rate 80%, immediately after permeation started, pH 4.54, 20° C.
Setting [15] is: membrane NaCl inhibition rate 80%, when concentrated to 2.5 times, 20° C.

SMILES strings stand for the structures. Read-outs that look alike come from different tables or passages of the source. Residues, ends and D or L forms follow the SMILES beside them.

Turning to `Cl.N` [NH4 Cl], the figures for the “Residual Rate” value in data set [1] (setting [6]) and in data set [1] (setting [7]) were 50.4% and 32.5%, respectively.

In the case of `[Cl-].[Na+]` [NaCl, sodium chloride], the “Inhibition Rate” value in data set [2] (setting [8]) is 11.0%; in data set [2] (setting [9]), 9.3%; in data set [2] (setting [10]), 23.5%; in data set [2] (setting [11]), 19.4%; in data set [2] (setting [12]), 60.3%; in data set [2] (setting [13]) it was 56.5%. The results for the “Inhibition Rate” value in data set [2] (setting [14]) and in data set [2] (setting [15]) were 85.6% and 82.3%, respectively.

Regarding `COC(=O)C[C@H](N)C(=O)N[C@@H](Cc1ccccc1)C(=O)O` [α-A(M)P, methyl ester at the L-aspartic acid β-carboxy residue of α-L-aspartyl-L-phenylalanine] (H-Asp(OMe)-Phe-OH), the “Residual Rate” value in data set [1] (setting [6]) is given as 97.8%. The “Residual Rate” value in data set [1] (setting [7]) came to 60.8%. In data set [3], the “permeability for reverse osmosis membranes” value is on record as “low permeability” and the “permeability of valuable matters” value was “low”.

On to `COC(=O)C[C@H](N)C(=O)N[C@@H](Cc1ccccc1)C(=O)OC` [α-A(M)PM, methyl ester of the L-aspartic acid β-carboxyl residue of α-L-aspartyl-L-phenylalanine methyl ester] (H-Asp(OMe)-Phe-OMe), for which the “Residual Rate” value was 80.3% in data set [1] (setting [6]) and 48.2% in data set [1] (setting [7]). Moreover, the permeability through membrane entry in data set [2] (in words, conclusion of Example 1) was “specifically readily permeable”. Besides, the “Inhibition Rate” value in data set [2] (setting [8]) stood at 56.7%; in data set [2] (setting [9]) it was 59.3%; in data set [2] (setting [10]), 82.7%; in data set [2] (setting [11]), 84.1%; in data set [2] (setting [12]), 91.0%; in data set [2] (setting [13]), 92.2%. The “Inhibition Rate” value in data set [2] (setting [14]) is 93.1%; in data set [2] (setting [15]) it was 93.9%. Also, in data set [3], the “permeability for reverse osmosis membranes” value is reported as “especially high permeability”. Further, the “permeability of valuable matters” value in data set [3] is reported as “low”.

As to `N[C@@H](CC(=O)O)C(=O)N[C@@H](Cc1ccccc1)C(=O)O` [α-AP, α-L-aspartyl-L-phenylalanine] (H-Asp-Phe-OH), the “Residual Rate” value in data set [1] (setting [6]) is listed as 98.7%; in data set [1] (setting [7]), 68.9%. For the same compound, the “Inhibition Rate” value is on record as 81.5% in data set [2] (setting [8]); 85.6% in data set [2] (setting [9]); 98.8% in data set [2] (setting [10]); 98.3% in data set [2] (setting [11]); 99.5% in data set [2] (setting [12]); 99.7% in data set [2] (setting [13]). Moreover, the “Inhibition Rate” value in data set [2] (setting [14]) was 99.7%; in data set [2] (setting [15]), 99.9%. For the same compound, the “permeability for reverse osmosis membranes” value in data set [3] was “low permeability”. Also, in data set [3], the “permeability of valuable matters” value is on record as “low”.

As to `COC(=O)[C@H](Cc1ccccc1)NC(=O)[C@@H](N)CC(=O)O` [α-APM, α-L-aspartyl-L-phenylalanine methyl ester] (H-Asp-Phe-OMe), the “Residual Rate” value in data set [1] (setting [6]) is 98.0%; in data set [1] (setting [7]) it was 60.8%. Moreover, the “Inhibition Rate” value in data set [2] (setting [8]) turned out to be 74.1%; in data set [2] (setting [9]) it was 79.2%; in data set [2] (setting [10]), 96.2%; in data set [2] (setting [11]), 97.7%; in data set [2] (setting [12]), 99.1%; in data set [2] (setting [13]), 99.3%. Moreover, the figures for the “Inhibition Rate” value in data set [2] (setting [14]) and in data set [2] (setting [15]) were 99.0% and 99.6%, respectively. Further, the “permeability for reverse osmosis membranes” value in data set [4] is given as “low permeability”. Also, the “permeability of valuable matters” value in data set [4] is reported as “low”. Also, the “stability in aqueous solution” value is listed as “readily undergoes various undesirable reactions” in data set [5] (high temperatures or acidic media) and “relatively stable” in data set [5] (temperatures lower than normal ambient temperatures).
